This note sets out measurements from ChEMBL document CHEMBL1201862, “PubChem BioAssay data set” (2004).

One data set addresses Nonstructural protein 1 (Influenza A virus, UniProt Q194T2). In kind it is functional, Influenza A virus (A/California/07/2009(H1N1)).
A short description of data set [1]: NIH-3T3 fibroblast cytotoxicity, dose response, cytotoxicity control, cell-based, fluorescence, Alamar Blue, secondary assay (AID 2327).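 Further: NIH-3T3 mouse fibroblasts cultured with fluconazole at 8 µg/mL.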 In kind it is functional.
A short description of data set [2]: fluconazole-exposed Candida albicans growth modulators – fluorescence, retest, confirmation (AID 2467). In kind it is functional, cell-based.
A short description of data set [3]: cells. In kind it is functional, cell-based.
Data set [4] in a line: cells. The data set is classed as functional, cell-based. The source holds these as a separate data set.
The target of data set [5] is T1, Heat shock factor protein 1 (Mus musculus, UniProt P38532).
T1 sequence (P38532 whole entry): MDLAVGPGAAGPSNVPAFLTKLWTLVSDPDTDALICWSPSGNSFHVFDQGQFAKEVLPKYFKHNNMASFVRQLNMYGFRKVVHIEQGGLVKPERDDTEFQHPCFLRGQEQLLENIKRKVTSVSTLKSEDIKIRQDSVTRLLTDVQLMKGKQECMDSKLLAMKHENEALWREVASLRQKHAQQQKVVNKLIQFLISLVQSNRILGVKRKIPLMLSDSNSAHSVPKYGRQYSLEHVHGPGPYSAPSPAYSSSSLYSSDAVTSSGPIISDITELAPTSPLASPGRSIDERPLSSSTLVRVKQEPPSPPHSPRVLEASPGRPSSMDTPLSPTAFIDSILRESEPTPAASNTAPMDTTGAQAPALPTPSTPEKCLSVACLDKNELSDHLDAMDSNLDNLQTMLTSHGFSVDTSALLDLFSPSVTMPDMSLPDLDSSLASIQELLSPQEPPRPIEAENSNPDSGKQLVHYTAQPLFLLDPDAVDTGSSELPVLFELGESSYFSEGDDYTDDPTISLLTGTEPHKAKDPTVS
In words: enhancement of HSF1-driven luciferase signal – cell-based, NIH3T3, luminescence, dose retest, confirmation (AID 435004).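 Further: stress induced by proteasome inhibitor MG132 added 30 min after compound; luciferase reporter driven by HSF1 response element in NIH3T3 cells; actives raise luminescence as potentiators of the MG132 stress response.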 In kind it is functional.

Data set [6] deals with Heat shock protein HSP 90-alpha (Homo sapiens, UniProt P07900). In kind it is functional, organism-based.
Data set [7] in a line: reduction of Shn3 3'UTR-driven luciferase in osteoblasts – cell-based, Clone20 osteoblasts, firefly luciferase, cherry-picked, dose response (AID 624132).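 Further: firefly luciferase luminescence from reporter carrying the Shn3 3'UTR in osteoblasts.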 The data set is classed as functional.
A further data set has as its target T2, Estrogen receptor (Homo sapiens, UniProt P03372).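 Further: potency for inhibiting coactivator peptide recruitment to the receptor.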
T2 sequence (P03372 whole entry): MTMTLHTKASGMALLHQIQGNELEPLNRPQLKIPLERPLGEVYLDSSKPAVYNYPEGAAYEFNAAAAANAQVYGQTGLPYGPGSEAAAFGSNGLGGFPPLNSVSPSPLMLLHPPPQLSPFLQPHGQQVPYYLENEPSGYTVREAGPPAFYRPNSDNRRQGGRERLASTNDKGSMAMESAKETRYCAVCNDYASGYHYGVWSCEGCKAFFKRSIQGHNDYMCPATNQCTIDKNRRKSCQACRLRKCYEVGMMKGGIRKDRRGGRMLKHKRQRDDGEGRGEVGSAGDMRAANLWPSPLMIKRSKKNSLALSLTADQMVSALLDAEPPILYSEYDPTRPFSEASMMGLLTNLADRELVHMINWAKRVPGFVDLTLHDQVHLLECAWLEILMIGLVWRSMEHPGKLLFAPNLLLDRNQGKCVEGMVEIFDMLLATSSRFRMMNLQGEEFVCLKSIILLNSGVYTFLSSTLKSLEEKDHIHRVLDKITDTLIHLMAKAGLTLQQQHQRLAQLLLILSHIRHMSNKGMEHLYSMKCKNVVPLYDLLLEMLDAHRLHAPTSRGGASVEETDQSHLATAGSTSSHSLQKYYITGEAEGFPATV

For data set [8], the target named is T3, Rac GTPase-activating protein 1 (Homo sapiens, UniProt Q9H0H5).
T3 sequence (Q9H0H5 whole entry): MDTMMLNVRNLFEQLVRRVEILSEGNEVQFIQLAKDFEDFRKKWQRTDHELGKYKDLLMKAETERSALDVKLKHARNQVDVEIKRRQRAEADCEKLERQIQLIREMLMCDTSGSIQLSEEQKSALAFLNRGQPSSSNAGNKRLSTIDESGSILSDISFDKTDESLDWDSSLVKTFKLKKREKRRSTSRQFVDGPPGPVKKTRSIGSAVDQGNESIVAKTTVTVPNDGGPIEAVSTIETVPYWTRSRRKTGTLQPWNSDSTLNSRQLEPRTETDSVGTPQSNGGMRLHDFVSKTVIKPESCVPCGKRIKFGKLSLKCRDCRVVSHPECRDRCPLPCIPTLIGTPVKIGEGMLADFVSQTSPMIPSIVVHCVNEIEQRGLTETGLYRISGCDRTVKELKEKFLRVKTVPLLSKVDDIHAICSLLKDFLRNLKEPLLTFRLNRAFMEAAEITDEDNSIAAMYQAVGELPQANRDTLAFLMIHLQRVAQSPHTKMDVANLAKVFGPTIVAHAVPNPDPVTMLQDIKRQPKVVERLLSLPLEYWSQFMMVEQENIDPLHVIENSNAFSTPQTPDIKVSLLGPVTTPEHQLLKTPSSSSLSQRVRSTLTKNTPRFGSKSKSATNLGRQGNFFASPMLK
As to the kind of experiment: blockers of MgcRacGAP-driven Rac1 GTP hydrolysis – biochemical, ADP Hunter fluorescence, primary and confirmatory, confirmation (AID 624330). The data set is classed as functional.

The next data set deals with Large T antigen (Simian virus 40, UniProt P03070). In kind it is functional, Betapolyomavirus macacae.
Sequence of Large T antigen (P03070 whole entry): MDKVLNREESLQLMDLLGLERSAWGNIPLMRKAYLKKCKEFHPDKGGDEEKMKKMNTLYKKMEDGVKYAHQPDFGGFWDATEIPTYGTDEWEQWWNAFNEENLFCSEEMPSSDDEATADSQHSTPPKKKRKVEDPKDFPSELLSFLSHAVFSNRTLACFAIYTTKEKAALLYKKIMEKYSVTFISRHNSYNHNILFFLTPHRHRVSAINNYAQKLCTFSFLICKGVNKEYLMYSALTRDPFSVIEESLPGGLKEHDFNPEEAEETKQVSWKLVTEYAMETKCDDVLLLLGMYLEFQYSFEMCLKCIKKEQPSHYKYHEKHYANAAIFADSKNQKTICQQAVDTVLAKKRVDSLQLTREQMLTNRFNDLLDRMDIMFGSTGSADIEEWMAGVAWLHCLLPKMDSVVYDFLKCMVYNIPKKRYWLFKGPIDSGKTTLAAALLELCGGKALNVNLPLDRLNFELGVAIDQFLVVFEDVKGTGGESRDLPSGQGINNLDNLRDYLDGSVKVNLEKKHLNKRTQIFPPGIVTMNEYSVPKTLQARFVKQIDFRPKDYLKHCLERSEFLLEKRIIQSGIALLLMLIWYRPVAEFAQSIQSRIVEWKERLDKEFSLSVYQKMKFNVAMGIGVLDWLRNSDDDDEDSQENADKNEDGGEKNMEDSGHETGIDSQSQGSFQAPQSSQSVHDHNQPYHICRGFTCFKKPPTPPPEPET
The nature of data set [9]: non-specific 3'UTR reporter inhibition in Clone20-Shn3RL – cell-based, Renilla luciferase, cherry-picked, counter-screen for Shn3 inhibitor project, dose response (AID 624133). In kind it is functional.
Another data set has as its target Genome polyprotein (dengue virus type 2, UniProt P29990). In words: flavivirus cap methylation enzyme inhibition – biochemical, confirmation dose response, primary screen (AID 588689). In kind it is functional.
For another data set, the target named is Cytochrome P450 2C9 (Homo sapiens, UniProt P11712).
Sequence of Cytochrome P450 2C9 (P11712 whole entry): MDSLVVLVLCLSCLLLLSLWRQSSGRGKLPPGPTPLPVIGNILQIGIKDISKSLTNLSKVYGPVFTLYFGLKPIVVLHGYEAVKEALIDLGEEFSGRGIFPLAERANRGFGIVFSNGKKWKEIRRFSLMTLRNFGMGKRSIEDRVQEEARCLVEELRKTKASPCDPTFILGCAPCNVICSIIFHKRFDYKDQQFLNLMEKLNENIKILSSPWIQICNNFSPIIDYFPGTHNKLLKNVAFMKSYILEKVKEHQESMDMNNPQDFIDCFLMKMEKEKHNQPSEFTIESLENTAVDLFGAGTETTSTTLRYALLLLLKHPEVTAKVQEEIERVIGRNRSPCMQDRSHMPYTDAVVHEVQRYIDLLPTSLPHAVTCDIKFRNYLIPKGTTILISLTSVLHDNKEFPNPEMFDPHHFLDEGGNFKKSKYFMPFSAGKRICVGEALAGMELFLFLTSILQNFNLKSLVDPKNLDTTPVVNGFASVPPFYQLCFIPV
Data set [10] is described as follows: cells. The data set is classed as functional.
The target in the next data set is Cytochrome P450 2C19 (Homo sapiens, UniProt P33261). As to the kind of experiment: Cytochrome panel assay with activity outcomes. Panel member name: p450-cyp2c19 Compounds with AC50 equal or less than 10 uM are considered active. In kind it is functional.
Sequence of Cytochrome P450 2C19 (P33261 whole entry): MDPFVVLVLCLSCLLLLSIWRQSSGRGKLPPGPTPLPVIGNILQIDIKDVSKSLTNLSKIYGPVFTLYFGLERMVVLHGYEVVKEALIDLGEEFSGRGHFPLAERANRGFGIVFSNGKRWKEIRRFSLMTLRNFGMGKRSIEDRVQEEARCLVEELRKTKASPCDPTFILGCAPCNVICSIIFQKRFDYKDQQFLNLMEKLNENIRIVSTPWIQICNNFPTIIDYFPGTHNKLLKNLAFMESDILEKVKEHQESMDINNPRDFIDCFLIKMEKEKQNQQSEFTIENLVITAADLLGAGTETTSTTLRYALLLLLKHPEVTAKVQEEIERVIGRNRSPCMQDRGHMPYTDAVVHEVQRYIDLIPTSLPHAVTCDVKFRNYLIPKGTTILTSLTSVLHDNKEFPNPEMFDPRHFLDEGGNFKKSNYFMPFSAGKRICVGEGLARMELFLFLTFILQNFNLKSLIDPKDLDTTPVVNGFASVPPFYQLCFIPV
Data set [11] is described as follows: intracellular Trypanosoma cruzi inhibitors in host cells – cell-based, plate reader, cherry-pick samples, set 3, dose response (AID 651818).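 Further: compounds incubated with infected cells for about four days.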 The data set is classed as functional.
Data set [12] has as its target Induced myeloid leukemia cell differentiation protein Mcl-1 (Homo sapiens, UniProt Q07820). The data set is classed as functional.
Data set [13] can be described thus: Luminescence Cell-Based Dose Response HTS to Identify Inhibitors of 5'UTR Stem-Loop Driven Prion Protein mRNA Translation in H4 Neuroglioblastoma Cells. [Related pubchem assays: 1827 (Project Summary), 1813 (Primary HTS)]. In kind it is functional.
Data set [14] in a line: alpha-synuclein stem-loop luciferase translation blockers – H4 neuroglioma cells, luminescence, confirmation (AID 1988). In kind it is functional, cell-based.
Data set [15] can be described thus: luciferase reporter signal suppression in cells – H4 neuroglioma cells, luminescence, dose response (AID 1990). In kind it is functional, cell-based.
The target in data set [16] is FAD-linked sulfhydryl oxidase ALR (Homo sapiens, UniProt P55789). In words: ALR-catalysed DTT oxidation blockers – biochemical, H2O2 detection, luminescence, cherry-pick, dose response (AID 493248).
Sequence of FAD-linked sulfhydryl oxidase ALR (P55789 whole entry): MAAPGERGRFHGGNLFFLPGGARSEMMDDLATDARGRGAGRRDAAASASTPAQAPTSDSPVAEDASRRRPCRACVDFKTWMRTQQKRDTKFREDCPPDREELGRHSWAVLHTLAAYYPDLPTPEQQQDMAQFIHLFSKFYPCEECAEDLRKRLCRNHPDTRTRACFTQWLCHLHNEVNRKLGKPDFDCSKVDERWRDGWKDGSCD

Calls of active or inactive are those of the source. Where only a bound is given, the exact number is not on record here.

Sequence of Genome polyprotein (P29990 2492-3391 limits assumed): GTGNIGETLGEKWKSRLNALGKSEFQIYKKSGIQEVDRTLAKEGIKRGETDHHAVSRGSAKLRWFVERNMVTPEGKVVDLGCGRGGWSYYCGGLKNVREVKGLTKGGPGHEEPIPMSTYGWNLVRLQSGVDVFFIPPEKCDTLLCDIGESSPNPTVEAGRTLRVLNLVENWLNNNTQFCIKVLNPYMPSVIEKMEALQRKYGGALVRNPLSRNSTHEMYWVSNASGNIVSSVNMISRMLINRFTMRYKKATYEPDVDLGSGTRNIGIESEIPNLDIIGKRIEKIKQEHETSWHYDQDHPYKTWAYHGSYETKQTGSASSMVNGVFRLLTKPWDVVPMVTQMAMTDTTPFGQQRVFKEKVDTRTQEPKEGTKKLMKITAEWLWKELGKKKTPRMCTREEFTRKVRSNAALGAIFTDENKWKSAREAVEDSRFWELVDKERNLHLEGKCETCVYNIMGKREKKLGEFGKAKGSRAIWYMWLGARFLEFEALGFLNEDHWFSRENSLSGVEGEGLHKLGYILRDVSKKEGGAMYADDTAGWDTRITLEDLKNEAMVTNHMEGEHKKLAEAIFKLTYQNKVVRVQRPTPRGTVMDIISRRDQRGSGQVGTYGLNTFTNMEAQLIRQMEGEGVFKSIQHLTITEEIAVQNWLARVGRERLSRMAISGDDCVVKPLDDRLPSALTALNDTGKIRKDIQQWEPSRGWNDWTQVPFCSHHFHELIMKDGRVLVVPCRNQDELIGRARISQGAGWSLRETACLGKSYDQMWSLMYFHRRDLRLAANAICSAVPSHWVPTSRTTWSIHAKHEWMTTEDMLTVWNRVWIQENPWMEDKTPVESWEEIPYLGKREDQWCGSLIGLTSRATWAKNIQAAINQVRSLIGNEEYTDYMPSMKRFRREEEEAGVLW
Sequence of Nonstructural protein 1 (Q194T2 whole entry): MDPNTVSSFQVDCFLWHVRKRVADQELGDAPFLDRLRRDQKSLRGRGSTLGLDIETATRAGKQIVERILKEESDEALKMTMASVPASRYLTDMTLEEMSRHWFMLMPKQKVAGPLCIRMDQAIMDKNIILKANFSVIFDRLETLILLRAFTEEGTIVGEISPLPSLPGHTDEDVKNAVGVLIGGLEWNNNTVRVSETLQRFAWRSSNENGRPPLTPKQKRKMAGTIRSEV
Sequence of Induced myeloid leukemia cell differentiation protein Mcl-1 (Q07820 whole entry): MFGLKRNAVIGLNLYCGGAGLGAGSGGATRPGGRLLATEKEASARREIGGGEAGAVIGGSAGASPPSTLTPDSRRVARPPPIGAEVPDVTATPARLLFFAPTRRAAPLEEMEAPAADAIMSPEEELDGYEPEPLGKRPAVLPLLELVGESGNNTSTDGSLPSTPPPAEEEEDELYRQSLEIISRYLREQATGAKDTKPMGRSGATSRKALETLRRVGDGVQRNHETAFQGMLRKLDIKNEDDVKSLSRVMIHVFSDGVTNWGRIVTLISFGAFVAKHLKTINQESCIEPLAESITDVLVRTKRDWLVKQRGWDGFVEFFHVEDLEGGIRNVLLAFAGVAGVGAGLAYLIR

A word on the IC50: it is the concentration that gives 50% inhibition. In general, EC50 refers to the concentration at which the effect is half-maximal. With `Cc1ccnc(NC(c2cccnc2)c2ccc3cccnc3c2O)c1` (stereo not drawn), at Nonstructural protein 1, the IC50 was 8.52 µM (active). Further, the EC50 in [1] is 46.7 µM (active); in [2] it was > 38 µM (not active); in “cells [3]” it was > 350 µM (not active); in the data set “cells [4]”, 200 µM (active).

What is called AC50 is the concentration at which the activity in the assay is half-maximal. Turning to `COc1ccccc1NS(=O)(=O)c1cc(C(=O)N2CC(C)CC(C)C2)ccc1C` (stereo not drawn), the EC50 in data set [5] is > 260 µM (inactive). The AC50 in [6] was 5.54 µM (active). Turning to `COC(=O)[C@@]12CCCN1[C@H](c1ccc(-c3ccc(OC)cc3)cc1)[C@@H]1C(=O)N(C)C(=O)[C@@H]12`, in [7], the half-maximal activity concentration (AC50) was 38.9 µM (active). For the compound `Cc1ccc(-n2nnnc2SCC(=O)Nc2cccc(NC(=O)c3ccco3)c2)cc1C`, the IC50 on Estrogen receptor is 14.9 µM (active). Consider `CN=C(S)Nc1ccc(Nc2ccccc2)cc1`, for which the values for the IC50 (in [8]; on Large T antigen) were 64.6 µM (active) and 12.3 µM (active), respectively. Consider `COc1cccc(C2CC(c3ccc(C)cc3)=NN2C(=O)c2ccccc2F)c1OC` (stereo not drawn), for which the values for the half-maximal activity concentration (AC50) in [7] and in data set [9] were 36 µM (active) and 30.4 µM (active), respectively. Take `CCOc1ccc(C(c2c(O)n(C)c(SC)nc2=O)c2c(O)n(C)c(SC)nc2=O)cc1`: at Genome polyprotein, the IC50 is 43 µM (active). With `CCOC(=O)c1cc(-c2ccc(N)cc2)sc1N`, the IC50 at Large T antigen was 9.87 µM (active). Same read-out and setting: next, `N=C1/C(=C\c2ccc(O)cc2)C(=O)N=C2SC(CC(=O)N3CCCCC3)=NN12`: 14.2 µM (active). As for `COCCCNC(=O)c1ccc2c(=O)n(Cc3ccc4c(c3)OCO4)c(=S)[nH]c2c1`, the IC50 at Estrogen receptor is listed as 42 µM (not active). Consider `COc1ccc(CNC(=O)c2cc(-c3cccs3)on2)cc1`, for which the 50% inhibitory concentration (IC50) at Estrogen receptor is 27.7 µM (active). For `CSc1nc(O)c(C(c2ccc(O)cc2)c2c(O)nc(SC)nc2O)c(O)n1`, the IC50 on Genome polyprotein was 46.7 µM (active). `O=C(CN1CCCCC1)Nc1nnc(-c2ccc([N+](=O)[O-])cc2)s1`: the AC50 at Cytochrome P450 2C9 is 17.8 µM (inconclusive); at Cytochrome P450 2C19 it was “inconclusive”. Besides, the IC50 in the data set “cells [10]” is 29.9 µM (active).

On to `CCc1ccc(NC(=O)N(CCN2CCOCC2)Cc2ccc3c(c2)CCCN3CC)cc1`, for which the IC50 at Nonstructural protein 1 is 40.6 µM (active). For the compound `O=C(Cn1c(=O)n(Cc2ccco2)c(=O)c2c3c(sc21)CCCCC3)c1ccccc1`, the IC50 against Estrogen receptor is > 50 µM (not active). On to `CCn1c(SCC(=O)Nc2ccc(NC(=O)c3ccco3)c(OC)c2)nc2ccccc2c1=O`, for which the IC50 against Estrogen receptor is reported as 35.8 µM (not active). `Cc1c(C)n(Cc2ccccc2)c2ncnc(NN)c12`: on Large T antigen, the IC50 was > 100 µM (active). For `C[C@H](CO)N1C[C@H](C)[C@@H](CN(C)Cc2ccc(-c3ccccc3)cc2)Oc2c(NC(=O)c3ccncc3)cccc2C1=O`, the AC50 in [11] was 0.08 µM (active). Regarding `F[B-](F)(F)c1cc2cc(Br)ccc2s1`, the AC50 in data set [6] is 4.02 µM (active).

`CCOC(=O)C(C)Oc1cc(Cl)c(C=O)cc1OC` (stereo not drawn): the EC50 in data set [5] was > 260 µM (inactive). Further, in “cells [10]”, the half-inhibitory concentration (IC50) is 24.4 µM (active). In the case of `C[C@@H]1CCCCO[C@@H](CN(C)Cc2ccc(Cl)c(Cl)c2)[C@@H](C)CN([C@H](C)CO)C(=O)c2cc(NC(=O)Cc3ccccc3)ccc2O1`, the AC50 in data set [11] was 4.04 µM (active). With `COc1ccc(S(=O)(=O)N(C)C[C@H]2Oc3ccc(NC(=O)Nc4cccc5ccccc45)cc3C(=O)N([C@@H](C)CO)C[C@H]2C)cc1`, the AC50 in data set [11] is 4.38 µM (active). The same measure, in the same setting: as for `C[C@@H]1CN([C@@H](C)CO)C(=O)c2cccc(NC(=O)c3nc4ccccc4s3)c2O[C@@H]1CN(C)Cc1ccccc1`, the figure is 4.84 µM (active); as for `C[C@@H]1CCCCO[C@H](CN(C)C(=O)Nc2ccc(C(F)(F)F)cc2)[C@@H](C)CN([C@H](C)CO)C(=O)c2cc(NC(=O)CCC(F)(F)F)ccc2O1`, 3.67 µM (active).

On to `C[C@@H]1CCCCO[C@@H](CN(C)Cc2ccc(C(=O)Nc3ccccc3N)cc2)[C@@H](C)CN([C@H](C)CO)C(=O)c2cc(NS(=O)(=O)c3ccc(Cl)cc3)ccc2O1`, for which, in [11], the AC50 was 3.39 µM (active). `C[C@@H]1CN([C@H](C)CO)C(=O)Cc2cc(NC(=O)Nc3ccc4c(c3)OCO4)ccc2O[C@H]1CN(C)CC1CCCCC1`: the AC50 in data set [11] is 7 µM (active). `C[C@@H]1CN([C@H](C)CO)C(=O)Cc2cc(NS(=O)(=O)c3ccc(Cl)cc3)ccc2O[C@@H]1CN(C)Cc1ccc(-c2ccccc2)cc1`: in data set [11], the AC50 was 2.76 µM (active). Turning to `Cc1[nH]n(-c2ccccc2)c(=O)c1N=Nc1ccccc1C(=O)O`, the IC50 at Genome polyprotein is 58 µM (active). `C=CCOC(=O)C1=C(C)N=c2s/c(=C3\C(=O)N(CC(=O)O)c4ccccc43)c(=O)n2C1c1ccc(OC)cc1` (stereo not drawn): the figures for the IC50 (at Genome polyprotein; in data set [12]; at Large T antigen) were 59.4 µM (active), 3 µM (active) and 49.1 µM (active), respectively. The EC50 in data set [13] was > 120 µM (not active); in [14], 74 µM (active); in data set [15], > 120 µM (not active).

Turning to `COc1cc(/C=N\NC(=O)CC(=O)NCCc2ccccc2)ccc1O`, the IC50 in [8] is 27.4 µM (active); at Large T antigen, 7.57 µM (active). Moreover, the AC50 in data set [16] is 1.7 µM (active).

In the case of `CCCCSc1nnc2c(n1)[nH]c1ccccc12`, on Estrogen receptor, the IC50 is listed as > 50 µM (not active).
